pEC50: −log10 of the molar value.

The source of these data is patent US20070099855A1 (priority 2003, published 2007).

One series can be described thus: in vitro. As to conditions: African green monkey.
The test system of series [1] is SARS-associated coronavirus. Format: cell-based. As to conditions: added to the culture medium; results not shown.
Series [2] relates to FipV (Feline infectious peritonitis Virus). Briefly: microbe, parasite or virus in culture. The series is classed as cell-based.
In another series the test system is CRFK cells. As to conditions: cat.
For series [3], the system named is TGEV (Transmissible gastroenteritis Virus). Briefly: microbe, parasite or virus in culture. Format: cell-based.
The subject of the next series is Vero cells. The settings on record: African green monkey.
Another series relates to nitrous oxide synthase. The series is classed as cell-based.
Another series deals with FipV. The series is classed as cell-based, Feline infectious peritonitis Virus. The settings on record: 500 μM.
For another series, the system named is TGEV. The series is classed as cell-based, Transmissible gastroenteritis Virus. As to conditions: 500 μM.
For series [4], the system named is SARS-associated coronavirus. The series is classed as cell-based. As to conditions: Vero cells, 72 hours after infection.

`O=c1cnn([C@@H]2O[C@H](CO)[C@@H](O)[C@H]2O)c(=O)[nH]1` [Compound 6-azauridine, 6-azauridine] returned a CC50 in the series “in vitro” of 104 µg/mL.

In turn, `COC(=O)[C@@]1(C)CC[C@]2(C)CC[C@]3(C)C(=CC(=O)C4[C@@]5(C)CCC(OC6OC(C(=O)NN)C(O)C(O)C6OC6OC(C(=O)NN)C(O)C(O)C6O)C(C)(C)C5CC[C@]43C)C2C1` (stereo partly drawn) [Compound 7] had a CC50 in the series “in vitro” of 66 µM.

For `COC(=O)[C@@]1(C)CC[C@]2(C)CC[C@]3(C)C(=CC(=O)C4[C@@]5(C)CCC(OC6OC(CO)C(O)C(O)C6OC6OC(CO)C(O)C(O)C6O)C(C)(C)C5CC[C@]43C)C2C1` (stereo partly drawn) [Compound 8], the CC50 in “in vitro” stood at 44 µM.

Take `NCCN(CCN)/[N+]([O-])=N/O` [DETANONOate]: the SARS-associated coronavirus replication entry in [1] is “replication was inhibited”.

As for `CC1(C)C(OC2OC(C(=O)O)C(O)C(O)C2OC2OC(C(=O)O)C(O)C(O)C2O)CC[C@@]2(C)C1CC[C@]1(C)C2C(=O)C=C2C3C[C@@](C)(C(=O)O)CC[C@]3(C)CC[C@]21C.N` (stereo partly drawn) [Glycyrrhizin Monoammonium Salt], the “inhibition of CPE, FipV” value in series [2] is given as “Partial inhibition”. Moreover, the pEC50 is over 3.30 in [2] (Alphacoronavirus 1, CRFK, 48 h, read-out: EC50, FipV) and over 3.30 in [3] (Alphacoronavirus 1, CRFK, 48 h, read-out: EC50, TGEV). Further, the “Tox. CRFK cells” value with CRFK cells is on record as over 1 mM. Moreover, the CC50 in the series “in vitro” came out at 625 µM. The “inhibition of CPE, TGEV” value in series [3] is “Partial inhibition”.

For `CC1(C)C(OC2OC(C(=O)O)C(O)C(O)C2OC2OC(C(=O)O)C(O)C(O)C2O)CC[C@]2(C)[C@H]3C(=O)C=C4[C@@H]5C[C@@](C)(C(=O)O)CC[C@]5(C)CC[C@@]4(C)[C@]3(C)CC[C@@H]12` (stereo partly drawn) [Glycyrrhizin, (3-beta,20-beta)-20-Carboxy-11-oxo-30-norolean-12-en-3-yl 2-O-beta-D-glucopyranuronosyl-alpha-D-glucopyranosiduronic acid], the CC50 in the series with Vero cells is reported as >20,000 mg/L. Further, in the series with nitrous oxide synthase, the “induction of nitrous oxide synthase” value was “induced nitrous oxide synthase”. In the series with FipV, the “virus replication, FipV” value is “significantly reduced”. Also, in the series with TGEV, the “virus replication, TGEV” value is “significantly reduced”. For the same compound, in series [4] (1000 mg/L), the “expression of viral antigens” value is “much lower”. For the same compound, the “replication of the virus” value in series [4] (4000 mg/L) is “completely blocked replication of the virus”. In the series “in vitro”, this compound gave a CC50 of over 20000 µg/mL and a cytotoxicity of 20 to 30%.

Consider `COc1c(C)c2c(c(O)c1C/C=C(\C)CCC(=O)O)C(=O)OC2` [Mycophenolic acid], for which the CC50 in “in vitro” is over 50 µg/mL.

The compound `NC(=O)c1[nH]nc([C@@H]2O[C@H](CO)[C@@H](O)[C@H]2O)c1O` [Pyrazofurin] gave a CC50 in “in vitro” of 52 µg/mL.

The compound `NC(=O)c1ncn([C@@H]2O[C@H](CO)[C@@H](O)[C@H]2O)n1` [Ribavirin] showed a CC50 in “in vitro” of over 1000 µg/mL.

As usually defined, the pEC50 is the EC50 on a negative log10 scale, so that one unit is a factor of ten.
